Source: patent US20090227587A1, “Pyrimidines as inhibitors of phosphoinositide-3-kinases (PI3K)” (Warner-Lambert Company LLC, priority 2003, published 2009)

Legend:
[1] = target: T1, p101/p110γ protein (PI3Kγ) (Homo sapiens, UniProt P48736); experiment: PI3Kγ in vitro kinase assay; assay type: biochemical; details: purified recombinant p101/p110γ with G protein β1/γ2 subunits, 20 μM ATP, PIP2 lipid micelles
T1 construct: HA; made in house; host or cells: Spodoptera frugiperda (Sf9) cells, baculovirus co-infection
Procedure: Spodtera frugiperda cells, grown in ESF921 media, were co-infected with baculovirus expressing a glu-tagged p101 and baculovirus expressing an HA-tagged p110γ, at a 3:1 ratio of p101 baculovirus to p110γ baculovirus. Sf9 cells were grown to 1×10^7 total cells/mL in 10 L bioreactors and harvested 48-72 hours post infection. Samples of infected cells were then tested for expression of p101/p110γ PI3 kinase by immunoprecipitation and Western Blot analysis methods (see below).
To purify PI3Kγ, 4 volumes of room temperature hypotonic lysis buffer (1 mM MgCl2, 1 mM DTT, 5 mM EGTA, 1 mM Pefabloc, 0.5 μM aprotinin, 5 μM leupeptin, 2 μM pepstatin, 5 μM E64, pH 8) per gram of cell paste, was poured onto frozen cell pellets with stirring, then lysed in a nitrogen “bomb” at 400 psi (599HC T316, Parr Instrument Co, Moline, Ill.). NaCl was added to 150 mM, and sodium cholate was added to 1% and mixed for another 45 minutes. The lysates were clarified by centrifugation for 25 minutes at 14,000 rpm. The lysates were then loaded over anti-glu-linked Protein-G Sepaharose beads (Covance Research Products, Richmond, Calif.) using 20 mL resin/50 g cell paste. The column was washed with 15 volumes of wash buffer (1 mM DTT, 0.2 mM EGTA, 1 mM Pefabloc, 0.5 μM aprotinin, 5 μM leupeptin, 2 μM pepstatin, 5 μM E64, 150 mM NaCl, 1% sodium cholate, pH 8). PI3Kγ was eluted with 6 column volumes of wash buffer that contain 100 μg/mL of a peptide that competes for binding of the glu tag. The column fractions with the eluted protein (determined by taking OD280 readings) were collected and dialyzed in 0.2 mM EGTA, 1 mM DTT, 1 mM Pefabloc, 5 μM leupeptin, 0.5% sodium cholate, 150 mM NaCl, and 50% glycerol, pH 8. The fractions were stored at −80° C. until further use.
Spodtera frugiperda cells were coinfected with baculovirus expressing a glu-tagged G protein β1 and baculovirus expressing a G protein […], at a 1:1 ratio of glu-tagged G protein […] baculovirus to G protein β2 baculovirus. Sf9 cells are grown in 10 L bioreactors and harvested 48-72 hours post infection. Samples of infected cells were tested for G protein β1/β2 expression by Western Blot analysis, as described below. Cell lysates were homogenized and loaded onto a column of glu-tagged beads as in Biological Example 1 and competed off the column with a glu peptide and processed as described in Biological Example 1.
The inhibitory properties of the compounds in Table 1 were assayed in an in vitro PI3K assay. In a 96-well polypropylene plate, each well was spotted with 2 μL of 50 times the desired final concentration of compound in DMSO. Purified recombinant p101/p110γ protein (0.03 μg; ˜2.7 nM) and G protein β1/γ2 subunits (0.09 μg; ˜57.7 nM) for each reaction was combined in the assay buffer (30 mM HEPES, 100 mM NaCl, 1 mM EGTA, and 1 mM DTT). ATP and [γ-^32P-ATP] (0.09 μCi) were added to this mixture so that the final ATP concentration in the reaction was 20 μM. Lipid micelles were formed by sonicating phosphatidylinositol-4,5-diphosphate (PIP2), phosphatidylethanolamine (PE), and Na-cholate in the assay buffer for 10 minutes, adding MgCl2 and incubating on ice for 20 minutes, for final concentrations of 25 μM PIP2, 300 μM PE, 0.02% Na-cholate, and 10 mM MgCl2 in the reaction. The reactions were started by adding equal volumes lipid and enzyme mixture in a total volume of 50 μL, allowed to run for 20 minutes at room temperature, and stopped with 100 μL 75 mM H3PO4. The lipid product was transferred to a glass fiber filter plate and washed with 75 mM H3PO4 several times. The presence of radioactive lipid product (PIP3) was measured by adding Wallac Optiphase mix to each well and counting in a Wallac 1450 Trilux plate reader (PerkinElmer Life Sciences Inc., Boston, Mass. 02118). The IC50 for each compound tested is reported in μM in the Tables above.

[2] = tested on: Lewis rats, streptococcal cell wall-induced paw edema; experiment: SCW streptococcal cell wall-induced paw edema; assay type: in vivo; details: 10, 30 and 100 mg/kg q.d. oral gavage for four days beginning on day 21, female Lewis rats
Procedure: Female Lewis rats (˜150 g) received 6 μg SCW in 10 μl Dulbecco's PBS by an intraarticular injection to the right tibiotalar joint on day 0. On day 21, the recurrence response was initiated with 100 μg SCW (250 μl, i.v.). Vehicle (0.5% hydroxypropylmethylcellulose/0.2% Tween 80) or the compound of Example 1 (4-Cycloheptyloxy-2-morpholin-4-yl-pyrimidine-5-carboxylic acid (2H-tetrazol-5-yl)-amide) was given orally (10 ml/kg volume), q.d., 1 hr prior to SCW, i.v., and on subsequent days. Baseline volumes of the sensitized hind paw were measured by a mercury displacement plethysmometer before disease initiation on day 21, and subtracted from subsequent assessments (made 24 hrs after each dose) to determine the Δ value (the difference between paw volume prior to disease initiation on day 21 and the paw volume 24 hours after each dose). The compound of Example 1 was dosed at 10, 30 and 100 mg/kg q.d. by oral gavage for four days beginning on day 21.

[3] = tested on: DBA/1 LacJ mice, collagen induced arthritis; experiment: Murine collagen induced arthritis; assay type: in vivo; details: 30 mg/kg q.d. oral gavage for two weeks beginning on day 27, female DBA/1 LacJ mice
Procedure: Bovine type II collagen (University of Utah) was diluted with 0.01N acetic acid to a concentration of 2 mg/mL and emulsified with an equal volume of Freund's complete adjuvant (Difco, Detroit, Mich.) supplemented with 1 mg/mL Mycobacterium tuberculosis Hra37. Age-matched (8-12 weeks) female DBA/1 LacJ mice (Jackson Laboratories, Bar Harbor, Me.) were immunized with 100 μL of emulsion (100 μg collagen) intradermally at the base of the tail. On Day 28 after immunization, the mice were given 50 μg Lipopolysaccharide (Sigma Aldrich, St Louis, Mo.) intraperitoneally (IP) in 100 μL saline. The compound of Example 1 (4-Cycloheptyloxy-2-morpholin-4-yl-pyrimidine-5-carboxylic acid (2H-tetrazol-5-yl)-amide) was dosed at 30 mg/kg q.d. by oral gavage for two weeks beginning on day 27. The development of arthritis was assessed on Days 27, 31, 34, 37, and 41. A clinical score was given to each limb using the following scale: (0) normal, (1) erythema and edema, (2) joint distortion, (3) joint ankylosis. Edema measurements on front paws, rear paws, and ankles were taken using constant tension calipers (Dyer, Lancaster, Pa.). The compound of Example 1 at 30 mg/kg q.d. inhibited paw edema in this model by 52%, and clinical score by 35%.

T1 sequence (P48736 whole entry, species assumed): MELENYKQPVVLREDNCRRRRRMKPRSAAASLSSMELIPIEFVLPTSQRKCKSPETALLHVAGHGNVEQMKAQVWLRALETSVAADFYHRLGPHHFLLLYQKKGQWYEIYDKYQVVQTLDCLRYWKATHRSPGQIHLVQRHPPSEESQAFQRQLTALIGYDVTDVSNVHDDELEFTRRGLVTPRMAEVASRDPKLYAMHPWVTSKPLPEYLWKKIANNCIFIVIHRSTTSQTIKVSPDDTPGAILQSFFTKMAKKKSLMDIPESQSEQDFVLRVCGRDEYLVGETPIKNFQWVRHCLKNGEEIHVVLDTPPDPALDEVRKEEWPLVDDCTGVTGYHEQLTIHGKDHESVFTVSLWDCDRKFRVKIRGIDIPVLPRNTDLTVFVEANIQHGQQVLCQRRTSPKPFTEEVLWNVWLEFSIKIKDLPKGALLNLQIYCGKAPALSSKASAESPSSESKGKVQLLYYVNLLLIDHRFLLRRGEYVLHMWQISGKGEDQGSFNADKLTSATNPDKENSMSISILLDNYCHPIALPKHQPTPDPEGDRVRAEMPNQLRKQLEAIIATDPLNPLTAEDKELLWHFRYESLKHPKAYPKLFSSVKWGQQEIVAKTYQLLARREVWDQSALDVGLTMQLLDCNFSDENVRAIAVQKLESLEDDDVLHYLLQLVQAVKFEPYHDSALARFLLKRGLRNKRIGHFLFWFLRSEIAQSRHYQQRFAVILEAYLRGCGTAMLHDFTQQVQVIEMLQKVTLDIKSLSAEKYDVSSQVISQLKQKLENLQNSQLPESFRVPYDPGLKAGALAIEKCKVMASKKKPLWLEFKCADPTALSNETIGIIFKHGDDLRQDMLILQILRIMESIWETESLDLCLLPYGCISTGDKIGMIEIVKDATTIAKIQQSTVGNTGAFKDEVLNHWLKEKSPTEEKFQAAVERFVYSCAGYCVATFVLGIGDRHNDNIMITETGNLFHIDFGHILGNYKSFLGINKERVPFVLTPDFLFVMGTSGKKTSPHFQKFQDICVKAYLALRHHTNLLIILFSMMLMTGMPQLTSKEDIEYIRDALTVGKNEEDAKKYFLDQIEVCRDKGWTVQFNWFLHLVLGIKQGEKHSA
T1 sequence (Q8WYR1 whole entry partner, species assumed): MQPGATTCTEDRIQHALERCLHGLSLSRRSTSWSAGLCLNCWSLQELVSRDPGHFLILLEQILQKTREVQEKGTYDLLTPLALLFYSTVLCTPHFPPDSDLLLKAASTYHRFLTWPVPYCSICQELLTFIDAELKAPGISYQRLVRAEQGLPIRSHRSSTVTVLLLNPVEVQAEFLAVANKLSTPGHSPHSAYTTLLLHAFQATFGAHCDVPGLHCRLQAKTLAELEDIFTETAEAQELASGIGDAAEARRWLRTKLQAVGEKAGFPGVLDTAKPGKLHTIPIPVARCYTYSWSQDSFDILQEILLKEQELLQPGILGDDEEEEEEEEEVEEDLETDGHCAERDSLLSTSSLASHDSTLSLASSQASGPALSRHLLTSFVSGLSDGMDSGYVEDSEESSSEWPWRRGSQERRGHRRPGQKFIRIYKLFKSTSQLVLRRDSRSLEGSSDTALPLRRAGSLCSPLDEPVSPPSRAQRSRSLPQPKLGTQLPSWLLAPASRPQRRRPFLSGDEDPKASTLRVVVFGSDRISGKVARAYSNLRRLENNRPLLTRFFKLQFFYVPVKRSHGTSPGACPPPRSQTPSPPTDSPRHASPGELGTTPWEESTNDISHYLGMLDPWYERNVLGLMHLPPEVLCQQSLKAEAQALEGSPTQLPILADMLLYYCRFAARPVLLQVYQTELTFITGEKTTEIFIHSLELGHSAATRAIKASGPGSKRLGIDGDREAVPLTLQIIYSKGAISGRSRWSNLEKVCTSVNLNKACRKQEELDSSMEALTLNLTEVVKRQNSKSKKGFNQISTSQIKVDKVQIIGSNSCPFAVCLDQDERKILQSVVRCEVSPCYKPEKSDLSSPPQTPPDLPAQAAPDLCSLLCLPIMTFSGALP

IC50 [1]: 197 nM
SMILES: O=C(Nc1nn[nH]n1)c1cnc(N2CCOCC2)nc1OC1CCCCCC1 [Example 1, 4-Cycloheptyloxy-2-morpholin-4-yl-pyrimidine-5-carboxylic acid (2H-tetrazol-5-yl)-amide]
ID50 for inhibition of paw edema [2]: 16.3 mg/kg
inhibition of clinical score [3]: 35%
inhibition of paw edema [3]: 52%
